The record followed here is PubChem BioAssay AID1159564 (GlaxoSmithKline (GSK), 2015).

Active and inactive are the calls of the source. The rule behind the calls is not given here.

In this experiment the test system is L. donovani-infected THP-1 macrophages, intracellular amastigote imaging. The experiment can be described thus: intracellular L. donovani amastigote inhibition, imaging, THP-1 host macrophages, host toxicity (AID 1159564).
Where [1] appears, read: measured here: THP-1 host cell toxicity.
The mark [2] stands for this setting: measured here: amastigotes per macrophage.

Regarding `Cc1ccccc1NS(=O)(=O)c1ccc2[nH]cc(C(=O)NC3CCCCC3)c(=O)c2c1`, the IC50 is 40 µM. Further, under setting [1], the half-inhibitory concentration (IC50) is 32 µM. Besides, the IC50 under setting [2] turned out to be 40 µM.

Consider `COc1ccc(C(C)(C)C)cc1S(=O)(=O)n1ccnc1`, for which the IC50 is > 50 µM (inactive). For the same molecule, the half-inhibitory concentration (IC50) under setting [1] is more than 50 µM. This molecule gave an IC50 under setting [2] of 25 µM.

For the molecule `COc1ccc(Nc2nc(NC3CCC(O)CC3)ncc2Br)c(C(N)=O)c1` (stereo unspecified), the 50% inhibitory concentration (IC50) was 1 µM. The molecule also displayed an IC50 under setting [1] of 0.4 µM. The same molecule registered an IC50 under setting [2] of 0.63 µM.

`CNC(=O)C1Cc2ccccc2N1C(=O)Cc1ccc(OC)cc1` (stereo unspecified): the concentration for half-maximal inhibition (IC50) is 7.9 µM. This molecule also showed an IC50 under setting [1] of 7.9 µM. Further, the IC50 under setting [2] worked out at 13 µM.

Regarding `COc1ccc(S(=O)(=O)NCc2ccc(-c3ccc(CN(C)CCO)cc3)cc2)cc1`, the IC50 is 16 µM. Besides, the IC50 under setting [1] came out at 20 µM. Under setting [2], this molecule registered an IC50 of 20 µM.

Take `COc1cccc(C(=O)[C@H]2C[C@@H]2CN(Cc2ccccn2)Cc2ccccn2)c1`: the half-maximal inhibitory concentration (IC50) was 2 µM. Besides, the IC50 under setting [1] is more than 50 µM. The molecule further displayed an IC50 under setting [2] of 1.6 µM.

Turning to `Cc1[nH]nc(C(F)(F)F)c1NC(=O)CCn1cc(Cl)c([N+](=O)[O-])n1`, the IC50 is > 50 µM (inactive). Under setting [1], this molecule displayed an IC50 of 16 µM. This molecule also yielded an IC50 under setting [2] of more than 50 µM.

Regarding `O=C1CN(Cc2ccco2)C2CS(=O)(=O)CC2N1c1ccc(Cl)cc1` (stereo unspecified), the IC50 was > 50 µM (inactive). Further, under setting [1], the IC50 is more than 50 µM. The molecule also came in with an IC50 under setting [2] of more than 50 µM.

Consider `CS(=O)(=O)c1cccc(-c2cnc(N)c3c(-c4ccc(CO)cc4)csc23)c1`, for which the IC50 is 10 µM. Besides, under setting [1], the IC50 is more than 50 µM. Under setting [2], this molecule registered an IC50 of 7.9 µM.

Turning to `CC1CCCN(S(=O)(=O)c2ccc(C(=O)Nc3nc(-c4ccccn4)cs3)cc2)C1` (stereo unspecified), the IC50 is 0.25 µM. Under setting [1], this molecule had an IC50 of 5 µM. For the same molecule, the half-inhibitory concentration (IC50) under setting [2] worked out at 0.16 µM.

For the molecule `COc1cccc2sc(CN(C)C(=O)C3CNCCN3c3ccc(F)cc3)c(C)c12` (stereo unspecified), the IC50 was 6.3 µM. This molecule registered an IC50 under setting [1] of 13 µM. The IC50 under setting [2] came to 4 µM.

For the molecule `CC(C)(C)C(=O)Nc1cc(C2CC2)nn1-c1nc2c(c(=O)[nH]1)CCCC2`, the IC50 was 5 µM. Further, under setting [1], the IC50 is 7.9 µM. Moreover, the IC50 under setting [2] came out at 2 µM.

Regarding `N#Cc1cccc(CN2CCC(N(Cc3cccnc3)C(=O)c3cc(F)c(F)cc3F)CC2)c1`, the IC50 is > 50 µM (inactive). For the same molecule, the IC50 under setting [1] is more than 50 µM. Under setting [2], the IC50 is 13 µM.

On to `O=c1cc(NCCCNCc2cc(C(F)(F)F)cs2)[nH]c2ccccc12`, for which the IC50 was 40 µM. Under setting [1], this molecule yielded an IC50 of 20 µM. Under setting [2], the IC50 worked out at 25 µM.

`Cc1ccc(NC(C)C(=O)Nc2ccc(C#N)cc2)cc1S(=O)(=O)N1CCCCC1` (stereo unspecified): the concentration for half-maximal inhibition (IC50) is 10 µM. The IC50 under setting [1] was 50 µM. The same molecule yielded an IC50 under setting [2] of 5 µM.

As to `Cc1c([N+](=O)[O-])c(C(=O)Nc2sc3c(c2C#N)CCC(C)C3)nn1C` (stereo unspecified), the IC50 is 32 µM. This molecule came in with an IC50 under setting [1] of more than 50 µM. The molecule also displayed an IC50 under setting [2] of 16 µM.

`CNS(=O)(=O)c1ccccc1Nc1nc(Nc2cc(C)nn2C)ncc1Cl`: the IC50 is 1 µM. In addition, the IC50 under setting [1] was 0.2 µM. The IC50 under setting [2] was 0.25 µM.

Turning to `N#Cc1cccc(CN2CCC(c3nc(-c4ccc(C(F)(F)F)nc4)no3)CC2)c1`, the IC50 is > 50 µM (inactive). Further, the IC50 under setting [1] was more than 50 µM. Moreover, the half-inhibitory concentration (IC50) under setting [2] was more than 50 µM.

`O=C(CCCn1cnc([N+](=O)[O-])n1)Nc1cccc(Cl)c1`: the IC50 was > 50 µM (inactive). Under setting [1], the IC50 was more than 50 µM. Further, under setting [2], the IC50 was more than 50 µM.

With `O=C(NCC1CCCCN1C(=O)c1cccc2ccccc12)c1ccccc1` (stereo unspecified), the IC50 was > 50 µM (inactive). The same molecule had a half-inhibitory concentration (IC50) under setting [1] of more than 50 µM. Under setting [2], the IC50 was more than 50 µM.

For the molecule `Fc1ccc(Nc2nc(-c3ccccn3)cs2)cc1`, the IC50 is 10 µM. The 50% inhibitory concentration (IC50) under setting [1] is more than 50 µM. Under setting [2], this molecule yielded an IC50 of 6.3 µM.

`NC(=O)c1ccccc1Nc1nc(NC2CCCCC2)nc2[nH]ccc12`: the IC50 was 13 µM. The molecule also gave an IC50 under setting [1] of 10 µM. Under setting [2], this molecule returned an IC50 of 13 µM.

On to `CC(=O)Nc1ccc(-c2ccnc(Nc3cccc(C#N)c3)n2)cc1`, for which the IC50 is 16 µM. Also, under setting [1], the IC50 came out at 10 µM. Besides, the IC50 under setting [2] was determined as 10 µM.

For the molecule `COc1ccc(CN2C(=O)C(O)(CC(=O)c3ccncc3)c3cc(Br)ccc32)cc1OC` (stereo unspecified), the IC50 is 25 µM. Moreover, the IC50 under setting [1] stood at 40 µM. The IC50 under setting [2] was found to be 20 µM.

With `COc1cc(C2SCC(=O)Nc3c2c(C)nn3-c2nc3ccccc3s2)cc(OC)c1O` (stereo unspecified), the IC50 was 0.32 µM. The half-maximal inhibitory concentration (IC50) under setting [1] is more than 50 µM. Under setting [2], the IC50 is 0.25 µM.

For `COc1ccc2ncc(=O)n(CCN3CCOC(CNCc4ccc(C(F)(F)F)cc4F)C3)c2n1` (stereo unspecified), the IC50 is > 50 µM (inactive). Moreover, the IC50 under setting [1] was more than 50 µM. For the same molecule, the half-inhibitory concentration (IC50) under setting [2] is more than 50 µM.

`CCc1ccccc1[C@@H](C)NC(=O)c1cnc2c(cnn2CC)c1NC1CCN(C(N)=O)CC1`: the IC50 is > 50 µM (inactive). This molecule also returned a half-inhibitory concentration (IC50) under setting [1] of more than 50 µM. Under setting [2], this molecule yielded an IC50 of more than 50 µM.

Usually IC50 stands for the concentration that inhibits the measured activity by half.
